Test [1] addresses T1, human recombinant adrenergic α2B receptor (Homo sapiens, UniProt P18089).
T1 construct: expressed in transfected cells; host or cells: CHO-K1 cells
T1 sequence (P18089 1-450): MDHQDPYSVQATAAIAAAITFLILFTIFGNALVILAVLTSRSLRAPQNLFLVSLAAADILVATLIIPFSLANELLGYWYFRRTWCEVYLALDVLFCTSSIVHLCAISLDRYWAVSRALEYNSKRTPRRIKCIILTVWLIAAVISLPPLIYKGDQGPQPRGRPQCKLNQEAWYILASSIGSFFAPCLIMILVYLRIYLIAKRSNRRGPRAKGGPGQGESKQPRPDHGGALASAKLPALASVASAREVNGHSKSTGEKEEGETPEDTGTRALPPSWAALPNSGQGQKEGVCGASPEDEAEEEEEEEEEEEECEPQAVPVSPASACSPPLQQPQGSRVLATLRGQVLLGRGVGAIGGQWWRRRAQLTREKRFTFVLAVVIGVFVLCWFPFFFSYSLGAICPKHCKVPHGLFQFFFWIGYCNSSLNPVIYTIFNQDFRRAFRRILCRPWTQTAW
The test is described as follows: Adrenergic α2B radioligand binding ([3H]Rauwolscine). The note with it: 1 μM; for inhibition at 1 µM: read-out: Adrenergic α2B, inhibition of ligand binding (1 μM).

Test [2] concerns the target T2, human recombinant serotonin (5-Hydroxytryptamine) 5-HT2A receptor (Homo sapiens, UniProt P28223).
T2 construct: expressed in transfected cells; host or cells: CHO-K1 cells
The test is described as follows: Serotonin 5-HT2A radioligand binding ([3H]Ketanserin). The note with it: for inhibition at 1 µM: read-out: Serotonin 5-HT2A, inhibition of ligand binding (1 μM). Summed up: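 CHO-K1 membranes with human 5-HT2A in 50 mM Tris-HCl pH 7.4, incubated with 0.5 nM [3H]Ketanserin for 60 min at 25 °C; non-specific binding defined with 1 μM mianserin. Bound ligand measured by filtration and counting.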

For test [3], the target named is T3, human recombinant adrenergic α1D receptor (Homo sapiens, UniProt P25100).
T3 construct: expressed in transfected cells; host or cells: HEK-293 cells
T3 sequence (P25100 1-572): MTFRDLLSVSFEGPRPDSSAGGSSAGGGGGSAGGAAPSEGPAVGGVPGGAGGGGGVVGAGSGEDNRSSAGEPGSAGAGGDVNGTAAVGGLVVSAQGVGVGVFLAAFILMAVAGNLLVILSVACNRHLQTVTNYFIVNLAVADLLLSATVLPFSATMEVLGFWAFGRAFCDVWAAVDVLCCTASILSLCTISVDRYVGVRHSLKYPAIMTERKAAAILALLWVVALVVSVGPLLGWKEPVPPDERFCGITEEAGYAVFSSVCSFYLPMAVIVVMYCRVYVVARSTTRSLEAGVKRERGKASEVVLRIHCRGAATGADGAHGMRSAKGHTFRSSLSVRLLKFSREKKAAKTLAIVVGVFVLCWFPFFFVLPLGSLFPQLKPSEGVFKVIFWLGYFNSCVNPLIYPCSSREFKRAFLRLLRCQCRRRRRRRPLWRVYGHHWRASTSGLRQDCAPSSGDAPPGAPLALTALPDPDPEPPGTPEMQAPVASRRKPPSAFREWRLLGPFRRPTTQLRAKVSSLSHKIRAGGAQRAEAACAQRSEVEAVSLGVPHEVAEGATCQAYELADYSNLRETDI
Briefly: Adrenergic α1D radioligand binding ([3H]Prozosin). The note with it: 1 μM; for inhibition at 1 µM: read-out: Adrenergic α1D, inhibition of ligand binding (1 μM). An outline of the steps:
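Membranes of HEK-293 cells expressing human α1D in 50 mM Tris-HCl pH 7.4, incubated 60 min at 25 °C with 0.6 nM [3H]prazosin; nonspecific binding with 10 μM phentolamine.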

Test [4] has as its target T4, human recombinant histamine H1 receptor (Homo sapiens, UniProt P35367).
T4 construct: expressed in transfected cells; host or cells: CHO cells
The test is described as follows: Histamine H1 radioligand binding ([3H]Pyrilamine). The conditions noted are these: compound at 1 μM, inhibition of specific [3H]Pyrilamine binding; for inhibition at 1 µM: read-out: Histamine Binding (1 μM) H1, Percentage Inhibition. An outline of the steps:
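Membranes from CHO cells expressing human H1 receptor were incubated with 1.2 nM [3H]pyrilamine for 180 min at 25° C in Tris-HCl buffer pH 7.4. Non-specific binding defined with 1 μM pyrilamine; compounds tested at 1 μM or lower in 1% DMSO. Results are given as % inhibition of specific binding.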

The term inhibition denotes the relative decrease from the control value, in per cent.

The structures appear in SMILES notation. Several values for one entry are separate records, joined by “and”; a condition that tells them apart may be missing. Equal values may be shown once.

T4 sequence (P35367 whole entry): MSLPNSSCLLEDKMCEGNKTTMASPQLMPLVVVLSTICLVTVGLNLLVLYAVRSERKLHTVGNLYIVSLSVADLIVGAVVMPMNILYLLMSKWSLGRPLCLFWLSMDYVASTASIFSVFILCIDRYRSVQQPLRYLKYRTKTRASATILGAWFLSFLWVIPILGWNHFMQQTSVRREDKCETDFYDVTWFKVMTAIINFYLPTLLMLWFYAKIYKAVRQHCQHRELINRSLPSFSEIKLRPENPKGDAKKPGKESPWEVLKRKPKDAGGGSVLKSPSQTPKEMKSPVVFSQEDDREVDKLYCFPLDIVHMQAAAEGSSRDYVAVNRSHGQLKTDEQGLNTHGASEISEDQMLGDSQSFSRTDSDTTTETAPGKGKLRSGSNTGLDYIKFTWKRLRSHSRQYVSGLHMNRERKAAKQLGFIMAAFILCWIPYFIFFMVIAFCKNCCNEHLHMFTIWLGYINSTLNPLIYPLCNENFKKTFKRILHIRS
T2 sequence (P28223 whole entry): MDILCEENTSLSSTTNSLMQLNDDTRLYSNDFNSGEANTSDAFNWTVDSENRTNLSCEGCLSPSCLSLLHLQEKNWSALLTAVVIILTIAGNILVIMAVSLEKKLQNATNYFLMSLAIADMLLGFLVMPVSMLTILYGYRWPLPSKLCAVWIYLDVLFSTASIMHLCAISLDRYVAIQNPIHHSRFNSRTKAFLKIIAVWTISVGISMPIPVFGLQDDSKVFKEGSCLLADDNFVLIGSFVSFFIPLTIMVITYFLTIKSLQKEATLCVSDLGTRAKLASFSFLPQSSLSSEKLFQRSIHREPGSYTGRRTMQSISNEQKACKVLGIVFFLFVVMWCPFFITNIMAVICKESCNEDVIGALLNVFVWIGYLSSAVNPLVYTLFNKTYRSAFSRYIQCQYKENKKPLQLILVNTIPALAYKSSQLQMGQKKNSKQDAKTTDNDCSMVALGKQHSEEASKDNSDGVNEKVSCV

For `CCOC(=O)CCn1c2c(c3cc(Cl)ccc31)C1CCC(C2)N1C` (centres unmarked) [Compound 70, ethyl 3-(2-chloro-11-methyl-5,6,7,8,9,10-hexahydro-7,10-iminocyclohept[b]indol-5-yl)propanoate], the inhibition at 1 µM in test [1] was determined as 51%; in test [2], 16%; in test [3] it was 26%; in test [4], 65%.

On to `Cc1ccc2c(c1)c1c(n2CCC#N)CC2CCC1N2C` (centres unmarked) [Compound 103], for which the inhibition at 1 µM in test [1] came out at 94%; in test [2], 13%; in test [3], 86%; in test [4], 85%.

For `CN1C2CCC1c1c(n(CCc3ccc(C(F)(F)F)nc3)c3ccc(Cl)cc13)C2` (centres unmarked) [Compound 34], in test [1], the “Adrenergic α2B, inhibition of ligand binding (1 μM)” value is given as 100.0% and the inhibition at 1 µM was determined as 103%. The “Serotonin 5-HT2A, inhibition of ligand binding (1 μM)” value in test [2] is 36.0/ % and 65.0%. Further, in test [3], the “Adrenergic α1D, inhibition of ligand binding (1 μM)” value is given as 56.0% and the inhibition at 1 µM turned out to be 61%. Also, in test [4], the “Histamine Binding (1 μM) H1, Percentage Inhibition” value stood at 55.0% and the inhibition at 1 µM was 52%.

On to `CN1[C@H]2CC[C@@H]1c1c(n(CCc3ccc(F)cc3)c3ccc(F)cc13)C2` [Compound 95, (−)-(7R,10S)-2-Fluoro-5-(4-fluorophenethyl)-11-methyl-5,6,7,8,9,10-hexahydro-7,10-iminocyclohept[b]indole], for which the inhibition at 1 µM in test [1] stood at 36%; in test [2], 57%; in test [3], 82%; in test [4] it was 55%.

`CN1C2CCC1c1c(n(CCc3cncc(Cl)c3)c3ccc(Cl)cc13)C2` (centres unmarked) [Compound 87]: the inhibition at 1 µM in test [1] came to 98%; in test [2] it was 51%; in test [3], 70%; in test [4], 96%.

For `Cc1ccc2c(c1)c1c(n2CCc2ccccc2)CC2CCCC1N2C` (centres unmarked) [Compound 56], the inhibition at 1 µM in test [1] is 100%; in test [2], 31%; in test [3], 65%; in test [4], 86%.

On to `C/C(=C\n1c2c(c3cc(C)ccc31)C1CCC(C2)N1C)c1ccc(Cl)cc1Cl` (centres unmarked) [Compound 163], for which the inhibition at 1 µM is 104% in test [1], 94% in test [2], 53% in test [3] and 72% in test [4].

On to `COc1ccc(CCn2c3c(c4cc(Cl)ccc42)C2CCC(C3)N2C)cc1` (centres unmarked) [Compound 84], for which the inhibition at 1 µM was 98% in test [1], 77% in test [2], 19% in test [3] and 83% in test [4].

For the compound `COc1ccc(C(C)(O)Cn2c3c(c4cc(C)ccc42)C2CCC(C3)N2C)cc1F` (centres unmarked) [Compound 161], the inhibition at 1 µM in test [1] amounted to 95%; in test [2] it was 96%; in test [3], 30%; in test [4], 84%.

In the case of `CN1C2CCC1c1c(n(CCC(=O)N3CCSCC3)c3ccc(Cl)cc13)C2` (centres unmarked) [Compound 12], the inhibition at 1 µM in test [1] was found to be 10%; in test [2] it was 10%; in test [3], 3%; in test [4], 29%.

On to `CN1C2CCC1c1c(n(CCc3ccc(Cl)cc3)c3ccc(Cl)cc13)C2` (centres unmarked) [Compound 58], for which the inhibition at 1 µM in test [1] was determined as 99%; in test [2] it was 79%; in test [3], 74%; in test [4] it was 98%.

Regarding `CN1C2CCC1c1c(n(C#Cc3ccc(Cl)cc3)c3ccc(Cl)cc13)C2` (centres unmarked) [Compound 142], the inhibition at 1 µM in test [1] amounted to 95%; in test [2], 98%; in test [3] it was 27%; in test [4], 34%.

For `Cc1ccc(CCn2c3c(c4cc(Cl)ccc42)C2CCC(C3)N2C)cn1` (centres unmarked) [Compound 79], the inhibition at 1 µM was 87% in test [1], 28% in test [2], 72% in test [3] and 93% in test [4].

On to `CN1C2CCC1c1c(n(CCc3ccc(F)cc3)c3ccc(Cl)cc13)C2` (centres unmarked) [Compound 57], for which the inhibition at 1 µM in test [1] worked out at 98%; in test [2], 79%; in test [3], 69%; in test [4] it was 96%.

In the case of `Cc1ccc(C(O)Cn2c3c(c4cc(Cl)ccc42)C2CCC(C3)N2C)cn1` (centres unmarked) [Compound 52], the inhibition at 1 µM in test [1] is 85%; in test [2], 21%; in test [3], 33%; in test [4], 91%.

Consider `Cc1ccc2c(c1)c1c(n2CCCc2ccc(Cl)cc2)CC2CCC1N2C` (centres unmarked) [Compound 85], for which the inhibition at 1 µM worked out at 92% in test [1], 95% in test [2], 43% in test [3] and 99% in test [4].

With `Cc1cncc(CCn2c3c(c4cc(C)ccc42)C2CCC(C3)N2C)c1` (centres unmarked) [Compound 90], the inhibition at 1 µM amounted to 75% in test [1], 30% in test [2], 40% in test [3] and 93% in test [4].

Take `CN1C2CCC1c1c(n(CCC(=O)N3CC[S+]([O-])CC3)c3ccc(Cl)cc13)C2` (centres unmarked) [Compound 10]: the inhibition at 1 µM was 7% in test [1], -5% in test [2], 7% in test [3] and 7% in test [4].

With `Cc1ccc2c(c1)c1c(n2CCc2ccc(C(F)(F)F)nc2)CC2CCC1N2C` (centres unmarked) [Compound 71], in test [1], the “Adrenergic α2B, inhibition of ligand binding (1 μM)” value amounted to 98.0% and the inhibition at 1 µM is 99%. Besides, in test [2], the “Serotonin 5-HT2A, inhibition of ligand binding (1 μM)” value is given as 34.0% and the inhibition at 1 µM was 22%. In addition, in test [3], the “Adrenergic α1D, inhibition of ligand binding (1 μM)” value turned out to be 63.0% and the inhibition at 1 µM turned out to be 62%. Also, in test [4], the “Histamine Binding (1 μM) H1, Percentage Inhibition” value worked out at 46.0% and the inhibition at 1 µM was determined as 33%.

Values taken from patent US8546381B2, “Bridged heterocyclic compounds and methods of use” (Medivation Technologies, Inc., priority 2008, dated 2013).
